As a reminder, the IC50 is the concentration at which inhibition is half-maximal.

A value given as a limit tells only on which side of the number the result lay.

This assay deals with FGFR3 kinase (Homo sapiens (Human), UniProt P22607, K650E). Briefly: FGFR3 kinase inhibition assay (radiometric filter binding / LanthaScreen TR-FRET). The class given is biochemical. To be noted: read-out: rating (FGFR3 kinase IC50). How it is done: Enzyme activities were measured by mixing 10 μL of a 3-fold concentrated compound solution or control with 10 μL of the corresponding substrate mixture (peptidic substrate, ATP and [γ^33P]ATP). The reactions were initiated by addition of 10 μL of a 3-fold concentrated solution of the respective enzyme in assay buffer.
Chain of FGFR3 kinase (P22607 23-806 K650E): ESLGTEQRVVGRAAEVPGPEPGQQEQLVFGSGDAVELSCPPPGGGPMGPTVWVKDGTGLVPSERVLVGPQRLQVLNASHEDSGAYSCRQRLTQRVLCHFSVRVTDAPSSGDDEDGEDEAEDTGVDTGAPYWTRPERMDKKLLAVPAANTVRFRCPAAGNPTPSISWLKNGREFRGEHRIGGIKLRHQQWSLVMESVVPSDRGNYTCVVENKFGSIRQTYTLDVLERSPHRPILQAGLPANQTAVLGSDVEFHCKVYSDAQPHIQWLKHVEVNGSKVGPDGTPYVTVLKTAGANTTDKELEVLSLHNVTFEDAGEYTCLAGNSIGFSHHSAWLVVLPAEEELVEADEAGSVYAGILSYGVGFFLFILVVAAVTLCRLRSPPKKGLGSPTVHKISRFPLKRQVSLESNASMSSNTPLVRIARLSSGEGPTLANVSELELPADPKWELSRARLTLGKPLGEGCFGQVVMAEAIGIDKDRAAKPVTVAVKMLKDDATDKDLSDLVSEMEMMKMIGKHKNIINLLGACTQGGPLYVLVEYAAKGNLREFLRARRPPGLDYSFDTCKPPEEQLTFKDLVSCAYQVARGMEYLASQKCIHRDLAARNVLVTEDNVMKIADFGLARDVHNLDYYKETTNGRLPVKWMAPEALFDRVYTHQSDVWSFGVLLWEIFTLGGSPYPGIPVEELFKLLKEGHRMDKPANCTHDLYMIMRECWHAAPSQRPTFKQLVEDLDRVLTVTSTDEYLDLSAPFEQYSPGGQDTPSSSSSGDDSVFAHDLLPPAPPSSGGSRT
Filter binding (FB) method: FB assays were carried out in 96-well plates at room temperature for 10 min in a finial volume of 30 μL including the components as indicated in section above. […] After spotting, vacuum was connected and each well rinsed with 200 μL 0.5% H3PO4. Free membranes were removed and washed 4 times on a shaker with 1% H3PO4 and once with ethanol. Membranes were dried and overlaid with addition of 10 μL/well of a scintillation fluid. The plates were eventually sealed and counted in a microplate scintillation counter. IC50 values were calculated by linear regression analysis of the percentage inhibition of the compound.
The assay has been run at room temperature on a liquid handling robot. […] After an incubation time of 45 min in the dark, the plates were transferred into a fluorescence reader for counting.
Compounds of formula (I) are assayed to measure their capacity to inhibit FGFR3 kinase as described above.
(TR-FRET usually uses a lanthanide donor and a delayed reading to cut background.)
As for `CCN1CCN(Cc2ccc(NC(=O)c3ccc(-c4c(Cl)c(OC)cc(OC)c4Cl)c4cccnc34)nc2)CC1` [Example 165, 5-(2,6-Dichloro-3,5-dimethoxy-phenyl)-quinoline-8-carboxylic acid [5-(4-ethyl-piperazin-1-ylmethyl)-pyridin-2-yl]-amide], the concentration for half-maximal inhibition (IC50) was in the range of 100 to 500 nM.

For `CCN1CCN(c2ccc(NC(=O)c3ccc(-c4c(Cl)c(OC)cc(OC)c4Cl)c4nccnc34)cc2)CC1` [Example 1, 8-(2,6-Dichloro-3,5-dimethoxy-phenyl)-quinoxaline-5-carboxylic acid [4-(4-ethylpiperazin-1-yl)-phenyl]-amide], the IC50 is less than 100 nM.

Turning to `COc1cc(OC)c(F)c(-c2ccc(C(=O)Nc3ccc(CN4CCS(=O)(=O)CC4)cn3)c3nccnc23)c1F` [Example 140, 8-(2,6-Difluoro-3,5-dimethoxy-phenyl)-quinoxaline-5-carboxylic acid [5-(1,1-dioxo-thiomorpholin-4-ylmethyl)-pyridin-2-yl]-amide], the IC50 is less than 100 nM.

For the compound `COc1cc(OC)c(Cl)c(-c2ccc(C(=O)Nc3cccnc3)c3ncc(N(C)CCN(C)C)nc23)c1Cl` [Example 87, 8-(2,6-Dichloro-3,5-dimethoxy-phenyl)-2-[(2-dimethylamino-ethyl)-methyl-amino]-quinoxaline-5-carboxylic acid pyridin-3-ylamide], the IC50 fell in the range of 500 to 50000 nM.

Consider `CCN1CCN(Cc2ccc(NC(=O)c3ccc(-c4c(Cl)c(OC)cc(OC)c4Cl)c4cccnc34)cn2)CC1` [Example 169, 5-(2,6-Dichloro-3,5-dimethoxy-phenyl)-quinoline-8-carboxylic acid [6-(4-ethyl-piperazin-1-ylmethyl)-pyridin-3-yl]-amide], for which the IC50 is 100 to 500 nM.

As for `COc1cc(OC)c(Cl)c(-c2ccc(C(=O)Nc3ncc[nH]3)c3ncccc23)c1Cl` [Example 161, 5-(2,6-Dichloro-3,5-dimethoxy-phenyl)-quinoline-8-carboxylic acid (1H-imidazol-2-yl)-amide], the IC50 is less than 100 nM.

For the compound `COc1cc(OC)c(Cl)c(-c2ccc(C(=O)Nc3ccc(CN4CCN(C)CC4)cn3)c3ncccc23)c1Cl` [Example 164, 5-(2,6-Dichloro-3,5-dimethoxy-phenyl)-quinoline-8-carboxylic acid [5-(4-methyl-piperazin-1-ylmethyl)-pyridin-2-yl]-amide], the IC50 was less than 100 nM.

With `COc1cc(OC)c(Cl)c(-c2ccc(C(=O)Nc3ccc(CN(C)CCN(C)C)cn3)c3nccnc23)c1Cl` [Example 81, 8-(2,6-Dichloro-3,5-dimethoxy-phenyl)-quinoxaline-5-carboxylic acid (5-{[(2-dimethylamino-ethyl)-methyl-amino]-methyl}-pyridin-2-yl)-amide], the IC50 was less than 100 nM.

As to `COc1cc(OC)c(Cl)c(-c2ccc(C(=O)Nc3nnc[nH]3)c3ncccc23)c1Cl` [Example 163], the IC50 was in the range of 500 to 50000 nM.

Take `COc1cc(OC)c(Cl)c(-c2ccc(C(=O)Nc3ccc(CN4CCS(=O)(=O)CC4)cn3)c3nccnc23)c1Cl` [Example 104, 8-(2,6-Dichloro-3,5-dimethoxy-phenyl)-quinoxaline-5-carboxylic acid [5-(1,1-dioxothiomorpholin-4-ylmethyl)-pyridin-2-yl]-amide]: the IC50 lay in the range of 100 to 500 nM.

With `COc1cc(OC)c(Cl)c(-c2ccc(C(=O)Nc3ccc(N4CCN(C(C)C)CC4)nc3)c3nccnc23)c1Cl` [Example 33, 8-(2,6-Dichloro-3,5-dimethoxy-phenyl)-quinoxaline-5-carboxylic acid [6-(4-isopropyl-piperazin-1-yl)-pyridin-3-yl]-amide], the IC50 was less than 100 nM.

On to `CCN1CCN(Cc2ccc(NC(=O)c3ccc(-c4cc(OC)cc(OC)c4)c4nccnc34)nc2)CC1` [Example 115, 8-(3,5-Dimethoxy-phenyl)-quinoxaline-5-carboxylic acid [5-(4-ethyl-piperazin-1-ylmethyl)-pyridin-2-yl]-amide], for which the half-inhibitory concentration (IC50) was in the range of 500 to 50000 nM.

`COc1cc(OC)c(Cl)c(-c2ccc(C(=O)Nc3ccc(O)cc3)c3nccnc23)c1Cl` [Example 7, 8-(2,6-Dichloro-3,5-dimethoxy-phenyl)-quinoxaline-5-carboxylic acid (4-hydroxyphenyl)-amide]: the IC50 lay in the range of 500 to 50000 nM.

Consider `COc1cc(OC)c(Cl)c(-c2ccc(C(=O)Nc3ccc(OCCN(C)C)cc3)c3nccnc23)c1Cl` [Example 5, 8-(2,6-Dichloro-3,5-dimethoxy-phenyl)-quinoxaline-5-carboxylic acid [4-(2-dimethylamino-ethoxy)-phenyl]-amide], for which the IC50 is less than 100 nM.

For `COc1cc(OC)c(F)c(-c2ccc(C(=O)Nc3cccnc3)c3nccnc23)c1F` [Example 90, 8-(2,6-Difluoro-3,5-dimethoxy-phenyl)-quinoxaline-5-carboxylic acid pyridin-3-ylamide], the 50% inhibitory concentration (IC50) fell in the range of 100 to 500 nM.

With `COc1cc(OC)c(F)c(-c2ccc(C(=O)Nc3nc(CN4CCN(C)CC4)c[nH]3)c3nccnc23)c1F` [Example 141, 8-(2,6-Difluoro-3,5-dimethoxy-phenyl)-quinoxaline-5-carboxylic acid [4-(4-methyl-piperazin-1-ylmethyl)-1H-imidazol-2-yl]-amide], the IC50 is less than 100 nM.

Consider `COc1cc(OC)c(Cl)c(-c2ccc(C(=O)Nc3nccn3Cc3ccccc3)c3ncccc23)c1Cl` [Example 160, 5-(2,6-Dichloro-3,5-dimethoxy-phenyl)-quinoline-8-carboxylic acid (1-benzyl-1H-imidazol-2-yl)-amide], for which the half-maximal inhibitory concentration (IC50) was in the range of 500 to 50000 nM.

For `COc1cc(OC)c(Cl)c(-c2ccc(C(=O)Nc3cnc[nH]3)c3ncccc23)c1Cl` [Example 162, 5-(2,6-Dichloro-3,5-dimethoxy-phenyl)-quinoline-8-carboxylic acid (3H-imidazol-4-yl)-amide], the half-maximal inhibitory concentration (IC50) was in the range of 100 to 500 nM.

In the case of `COc1cc(OC)c(Cl)c(-c2ccc(C(=O)Nc3ccn(CCN(C)C)c3)c3nccnc23)c1Cl` [Example 121, 8-(2,6-Dichloro-3,5-dimethoxy-phenyl)-quinoxaline-5-carboxylic acid [1-(2-dimethylamino-ethyl)-1H-pyrrol-3-yl]-amide], the 50% inhibitory concentration (IC50) fell in the range of 500 to 50000 nM.

Consider `COc1cc(OC)c(Cl)c(-c2ccc(C(=O)Nc3nnc[nH]3)c3nccnc23)c1Cl` [Example 17, 8-(2,6-Dichloro-3,5-dimethoxy-phenyl)-quinoxaline-5-carboxylic acid (4H-[1,2,4]triazol-3-yl)-amide], for which the half-inhibitory concentration (IC50) fell in the range of 500 to 50000 nM.

As to `COc1cc(OC)c(Cl)c(-c2ccc(C(=O)Nc3ccc(CN4CCN(C)CC4)nc3)c3ncccc23)c1Cl` [Example 168, 5-(2,6-Dichloro-3,5-dimethoxy-phenyl)-quinoline-8-carboxylic acid [6-(4-methyl-piperazin-1-ylmethyl)-pyridin-3-yl]-amide], the IC50 lay in the range of 100 to 500 nM.

Turning to `COc1cc(OC)c(Cl)c(-c2ccc(C(=O)Nc3ccc(N(C)C4CCN(C)CC4)nc3)c3nccnc23)c1Cl` [Example 37, 8-(2,6-Dichloro-3,5-dimethoxy-phenyl)-quinoxaline-5-carboxylic acid {6-[methyl-(1-methyl-piperidin-4-yl)-amino]-pyridin-3-yl}-amide], the IC50 was less than 100 nM.

As to `COc1ccc(Cl)c(-c2ccc(C(=O)Nc3ccc(OCCN(C)C)cc3)c3nccnc23)c1` [Example 65, 8-(2-Chloro-5-methoxy-phenyl)-quinoxaline-5-carboxylic acid [4-(2-dimethylamino-ethoxy)-phenyl]-amide], the IC50 fell in the range of 500 to 50000 nM.

With `COc1cc(OC)cc(-c2ccc(C(=O)Nc3ccc(CN4CCNCC4)cn3)c3nccnc23)c1` [Example 117], the IC50 lay in the range of 500 to 50000 nM.

As for `COc1cc(OC)c(Cl)c(-c2ccc(C(=O)Nc3ccc(CN4CCNCC4)nc3)c3ncccc23)c1Cl` [Example 171, 5-(2,6-Dichloro-3,5-dimethoxy-phenyl)-quinoline-8-carboxylic acid (6-piperazin-1-ylmethyl-pyridin-3-yl)-amide], the half-inhibitory concentration (IC50) fell in the range of 500 to 50000 nM.

`COc1cc(OC)c(F)c(-c2ccc(C(=O)Nc3ccc(CN4CCN(C)CC4)nc3)c3nccnc23)c1F` [Example 89, 8-(2,6-Difluoro-3,5-dimethoxy-phenyl)-quinoxaline-5-carboxylic acid [6-(4-methyl-piperazin-1-ylmethyl)-pyridin-3-yl]-amide]: the concentration for half-maximal inhibition (IC50) was less than 100 nM.

Consider `CCN1CCN(c2ccc(NC(=O)c3ccc(-c4c(C)cccc4C)c4nccnc34)cc2)CC1` [Example 72, 8-(2,6-Dimethyl-phenyl)-quinoxaline-5-carboxylic acid [4-(4-ethyl-piperazin-1-yl)-phenyl]-amide], for which the IC50 lay within 500 to 50000 nM.

`CCN1CCN(Cc2ccc(NC(=O)c3ccc(-c4c(F)c(OC)cc(OC)c4F)c4nccnc34)cn2)CC1` [Example 88, 8-(2,6-Difluoro-3,5-dimethoxy-phenyl)-quinoxaline-5-carboxylic acid [6-(4-ethyl-piperazin-1-ylmethyl)-pyridin-3-yl]-amide]: the IC50 was less than 100 nM.
